For nine compounds, Emax and EC50 results are on record in US12122761B2, “2-azaspiro[3.4]octane derivatives as M4 agonists” (NOVARTIS AG, priority 2019, dated 2024).

Bounds are passed on as bounds.

Assay [1] deals with T1, Cloned human M1 receptor (CHRM1) stably expressed in HEK293 cells (Homo sapiens, UniProt P11229).
T1 construct: expressed in transfected cells; host or cells: HEK293
T1 sequence (P11229 1-460): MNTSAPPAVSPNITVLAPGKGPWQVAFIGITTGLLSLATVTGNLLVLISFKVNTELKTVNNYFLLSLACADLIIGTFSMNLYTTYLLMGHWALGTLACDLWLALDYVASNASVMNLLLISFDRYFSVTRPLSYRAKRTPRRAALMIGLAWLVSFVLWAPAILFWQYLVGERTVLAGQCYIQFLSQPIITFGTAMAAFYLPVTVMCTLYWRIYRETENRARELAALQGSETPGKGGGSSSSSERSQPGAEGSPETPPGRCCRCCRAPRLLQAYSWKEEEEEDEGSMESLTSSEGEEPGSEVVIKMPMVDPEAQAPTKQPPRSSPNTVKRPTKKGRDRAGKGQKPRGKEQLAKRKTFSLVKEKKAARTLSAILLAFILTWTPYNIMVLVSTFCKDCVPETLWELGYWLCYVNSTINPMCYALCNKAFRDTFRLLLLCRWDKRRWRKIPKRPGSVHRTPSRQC
Nature of the assay: CHRM1 Ca++ Flux Assay (agonist mode, FDSS 7000EX). Type of assay: cell-based. The following applies: for Emax: HEK293, Percent Activity, read-out: M1 FDSS PA; for EC50: geometric mean if tested more than once. In a few lines: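 Compounds tested as agonists at 11 concentrations in triplicate, with calcium traces captured over 3 minutes. Cells were HEK293 with stable human CHRM1 expression, plated overnight at 25K/well and loaded with calcium dye. Responses normalized to carbachol EC100 and fitted by four-parameter nonlinear regression.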

The target of assay [2] is T2, human cloned CHRM3 receptor (M3_CHO cells) (Homo sapiens, UniProt P20309).
T2 construct: expressed in transfected cells; host or cells: CHO-K1
The experiment in a line: CHRM3 Ca++ Flux Assay (agonist mode, FDSS 7000EX). Type of assay: cell-based. Particulars: for Emax: Percent Activity measured to EC100 of Carbachol, read-out: M3 FDSS PA; for EC50: agonist mode, geometric mean if tested more than once, read-out: M3 FDSS EC50. Put shortly: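 Stable CHO-K1 lines (human M3 or M5), calcium-dye loaded ≥1 h, assayed in Ca/Mg-free HBSS + 20 mM HEPES + 2.5 mM probenecid. 11-pt dose response, triplicate, 3 min fluorescence read. 4-parameter regression; % activity vs carbachol EC100.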

T2 sequence (P20309 whole entry): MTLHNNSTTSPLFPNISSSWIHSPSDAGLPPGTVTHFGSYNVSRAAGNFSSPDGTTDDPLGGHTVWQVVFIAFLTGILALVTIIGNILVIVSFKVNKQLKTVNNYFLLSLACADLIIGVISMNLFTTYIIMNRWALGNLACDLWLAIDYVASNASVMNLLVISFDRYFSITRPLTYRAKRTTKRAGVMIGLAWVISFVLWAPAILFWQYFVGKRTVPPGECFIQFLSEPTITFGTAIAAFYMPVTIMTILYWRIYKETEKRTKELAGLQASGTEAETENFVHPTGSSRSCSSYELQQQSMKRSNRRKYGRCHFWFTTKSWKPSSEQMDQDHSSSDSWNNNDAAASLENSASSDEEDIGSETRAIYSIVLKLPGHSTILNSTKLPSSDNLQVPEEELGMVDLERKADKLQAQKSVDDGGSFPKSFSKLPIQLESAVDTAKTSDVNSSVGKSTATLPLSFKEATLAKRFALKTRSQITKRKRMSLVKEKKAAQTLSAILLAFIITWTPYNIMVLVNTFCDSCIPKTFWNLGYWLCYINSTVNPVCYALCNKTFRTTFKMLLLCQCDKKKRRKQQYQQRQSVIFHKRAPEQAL

`COc1ccccc1C1CCN([C@@H]2CCC3(C2)CN(c2cccnc2)C3)CC1` [Example 5K, (R)-6-(4-(2-methoxyphenyl)piperidin-1-yl)-2-(pyridin-3-yl)-2-azaspiro[3.4]octane]: in assay [1], the Emax is 54% and the EC50 turned out to be 0.284 µM. Further, in assay [2], the Emax came to 0% and the EC50 is more than 25 µM.
For `Cc1ccc(N2CC3(CC[C@@H](N4CCC(c5ccccc5O[C@@H]5CCOC5)CC4)C3)C2)cn1` [Example 5L, (R)-2-(6-methylpyridin-3-yl)-6-(4-(2-(((R)-tetrahydrofuran-3-yl)oxy)phenyl)piperidin-1-yl)-2-azaspiro[3.4]octane], in that order: 0%, more than 25 µM, 0% and 11.7 µM.
For `COc1ccccc1C1CCN([C@@H]2CCC3(C2)CN(c2ncnc(C)n2)C3)CC1` [Example 5M, (R)-6-(4-(2-methoxyphenyl)piperidin-1-yl)-2-(4-methyl-1,3,5-triazin-2-yl)-2-azaspiro[3.4]octane], in assay [1], the Emax is 0% and the concentration giving a half-maximal response (EC50) was more than 25 µM. Moreover, in assay [2], the Emax amounted to 0% and the EC50 is more than 25 µM.
Consider `COc1ccccc1C1CCN([C@@H]2CCC3(C2)CN(c2ccc(Cl)nn2)C3)CC1` [Example 5N, (R)-2-(6-chloropyridazin-3-yl)-6-(4-(2-methoxyphenyl)piperidin-1-yl)-2-azaspiro[3.4]octane], for which, in assay [1], the Emax came out at 0% and the EC50 is more than 25 µM. For the same compound, in assay [2], the Emax came out at 9% and the EC50 came out at 11.3 µM.
For `COc1ccccc1C1CCN([C@@H]2CCC3(C2)CN(c2cccnn2)C3)CC1` [Example 5O, (R)-6-(4-(2-methoxyphenyl)piperidin-1-yl)-2-(pyridazin-3-yl)-2-azaspiro[3.4]octane], in that order: 27%, 1.34 µM, 0% and more than 25 µM.
For `COc1ccc(Cl)cc1C1CCN([C@@H]2CCC3(C2)CN(c2ccnnc2)C3)CC1` [Example 5P, (R)-6-(4-(5-chloro-2-methoxyphenyl)piperidin-1-yl)-2-(pyridazin-4-yl)-2-azaspiro[3.4]octane] the same measures were 60%, 0.196 µM, 0% and more than 25 µM.
For `c1ccc(C2CCN([C@@H]3CCC4(C3)CN(c3ncncn3)C4)CC2)c(OCC2CCOCC2)c1` [Example 5Q, (R)-6-(4-(2-((tetrahydro-2H-pyran-4-yl)methoxy)phenyl)piperidin-1-yl)-2-(1,3,5-triazin-2-yl)-2-azaspiro[3.4]octane], the Emax in assay [1] and in assay [2] was 0% throughout. The EC50 in assay [1] and in assay [2] was more than 25 µM in each case.
`COc1ccccc1C1CCN([C@@H]2CCC3(C2)CN(c2cc(Cl)nnc2Cl)C3)CC1` [Example 5R, (R)-2-(3,6-dichloropyridazin-4-yl)-6-(4-(2-methoxyphenyl)piperidin-1-yl)-2-azaspiro[3.4]octane]: the figures for the Emax in assay [1] and in assay [2] were 41% and 0%, respectively. Besides, the half-maximal effective concentration (EC50) in assay [1] is 2.03 µM; in assay [2], more than 25 µM.
For the compound `COc1ccccc1C1CCN([C@@H]2CCC3(C2)CN(c2ccnnc2)C3)CC1` [Example 5S, (R)-6-(4-(2-methoxyphenyl)piperidin-1-yl)-2-(pyridazin-4-yl)-2-azaspiro[3.4]octane], in assay [1], the Emax was found to be 45% and the half-maximal effective concentration (EC50) was determined as 1.04 µM. Moreover, in assay [2], the Emax is 0% and the EC50 is more than 25 µM.
